How the values were obtained:
Assay in all cases: relative viability (nuclei count vs DMSO), 5 days (fraction); higher = more cells survive
[1] = compound: CS(=O)(=O)c1ccc(-c2cnc(N)c(C(=O)Nc3ccccc3)n2)cc1 [VE-821] + Nc1ncn([C@H]2C[C@H](O)[C@@H](CO)O2)c(=O)n1 [Decitabine] (partner 2 µM)
Summary of the method: (§1)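 Five library-drug doses in √10 steps were combined with a fixed anchor-drug dose, or a single drug was given alone, by pin tool to lung cancer cell lines in 1536-well plates the day after seeding. Nuclei were stained and counted after 5 days. Relative viability is the nuclei count in treated wells over that in vehicle wells, taken as the median of duplicate plates.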

[2] = compound: CS(=O)(=O)c1ccc(-c2cnc(N)c(C(=O)Nc3ccccc3)n2)cc1 [VE-821] + Nc1nc2[nH]cc(CCc3ccc(C(=O)N[C@@H](CCC(=O)O)C(=O)O)cc3)c2c(=O)[nH]1 [Pemetrexed] (partner 0.2 µM)
Summary of the method: as §1

[3] = compound: CS(=O)(=O)c1ccc(-c2cnc(N)c(C(=O)Nc3ccccc3)n2)cc1 [VE-821] + NC(=O)Nc1cc(-c2cccc(F)c2)sc1C(=O)N[C@H]1CCCNC1 [AZD7762] (partner 0.2 µM)
Summary of the method: as §1

[4] = compound: N#CC[C@H](C1CCCC1)n1cc(-c2ncnc3[nH]ccc23)cn1 [Ruxolitinib] + CC(=O)Nc1cccc(-n2c(=O)n(C3CC3)c(=O)c3c(Nc4ccc(I)cc4F)n(C)c(=O)c(C)c32)c1 [Trametinib] (partner 0.02 µM)
Summary of the method: as §1

Cell Line | relative viability ([1]; first compound 0.08 µM) | relative viability ([1]; first compound 0.253 µM) | relative viability ([1]; first compound 0.8 µM) | relative viability ([1]; first compound 2.53 µM) | relative viability ([1]; first compound 8 µM) | relative viability ([2]; first compound 0.08 µM) | relative viability ([2]; first compound 0.253 µM) | relative viability ([2]; first compound 0.8 µM) | relative viability ([2]; first compound 2.53 µM) | relative viability ([2]; first compound 8 µM) | relative viability ([3]; first compound 0.08 µM) | relative viability ([3]; first compound 0.253 µM) | relative viability ([3]; first compound 0.8 µM) | relative viability ([3]; first compound 2.53 µM) | relative viability ([3]; first compound 8 µM) | relative viability ([4]; first compound 0.08 µM) | relative viability ([4]; first compound 0.8 µM) | relative viability ([4]; first compound 2.53 µM) | relative viability ([4]; first compound 8 µM) | relative viability ([4]; first compound 0.253 µM)
NCI-H2087 | 0.381 | 0.286 | 0.309 | 0.363 | 0.275 | 0.667 | 0.634 | 0.65 | 0.679 | 0.67 | 1.6 | 1.08 | 1.12 | 1.04 | 0.66 | 0.173 | 0.22 | 0.263 | 0.27 | –
NCI-H2126 | 0.523 | 0.576 | 0.577 | 0.588 | 0.528 | 0.687 | 0.585 | 0.693 | 0.475 | 0.31 | 1.07 | 1.05 | 0.987 | 0.928 | 0.615 | 0.559 | 0.607 | 0.58 | 0.664 | 0.543
NCI-H2170 | 0.515 | 0.469 | 0.487 | 0.434 | 0.295 | 0.277 | 0.23 | 0.281 | 0.234 | 0.177 | 0.842 | 0.766 | 0.771 | 0.394 | 0.199 | 0.868 | 0.879 | 0.867 | 0.933 | 0.895
NCI-H2342 | 0.773 | 0.754 | 0.704 | 0.75 | 0.682 | 0.792 | 0.777 | 0.804 | 0.736 | 0.667 | 0.494 | 0.642 | 0.426 | 0.388 | 0.384 | 0.762 | 0.808 | 0.807 | 0.816 | 0.872
NCI-H2347 | 0.624 | 0.595 | 0.678 | 0.693 | 0.723 | 0.482 | 0.45 | 0.418 | 0.445 | 0.526 | 0.703 | 0.746 | 0.42 | 0.698 | 0.531 | 0.296 | 0.287 | 0.247 | 0.334 | 0.272
NCI-H2405 | 0.805 | 0.698 | 0.775 | 0.814 | 0.761 | 1.09 | 1.04 | 1.05 | 1.12 | 0.884 | 0.791 | 0.677 | 0.598 | 0.553 | 0.25 | 0.674 | 0.725 | 0.428 | 0.398 | 0.66
NCI-H3122 | 0.474 | 0.482 | 0.485 | 0.46 | 0.428 | 0.202 | 0.19 | 0.176 | 0.159 | 0.128 | 1.05 | 0.857 | 0.97 | 0.654 | 0.545 | 0.232 | 0.21 | 0.167 | 0.227 | 0.192
PC-3 [JPC-3] | 0.87 | 0.832 | 0.95 | 0.912 | 0.799 | 1.25 | 1.03 | 1.18 | 1.13 | 0.848 | 0.882 | 0.728 | 0.99 | 0.798 | 0.62 | – | 0.79 | 0.654 | 0.64 | 0.711
